# Literature values as cited in Sander's compilation of Henry's law constants (doi:10.1080/00022470.1982.10465374).
# Test: Henry solubility constant Hcp at 298.15 K (mol/(m3 Pa))
# Conditions: reference: Shen (1982); cited value
row,SMILES,Henry solubility constant Hcp
1,Clc1ccccc1 [chlorobenzene],0.0025
2,C1=Cc2cccc3cccc1c23 [acenaphthylene],0.087
3,c1cc2c3c(cccc3c1)CC2 [acenaphthene],0.041
4,"c1ccc2c(c1)Cc1ccccc1-2 [2,3-benzindene]",0.084
5,"C=C(Cl)Cl [1,1-dichloroethene]",0.00066
6,"CC(Cl)(Cl)Cl [1,1,1-trichloroethane]",0.002
7,Cc1ccccc1 [methylbenzene],0.0017
8,ClC(Br)Br [dibromochloromethane],0.013
9,ClC1=C(Cl)[C@]2(Cl)[C@@H]3[C@@H]4C[C@@H]([C@H]5O[C@@H]45)[C@@H]3[C@@]1(Cl)C2(Cl)Cl [dieldrin],0.17
10,"Clc1ccc(Cl)cc1 [1,4-dichlorobenzene]",0.0036
11,ClC(Cl)=C(Cl)Cl [tetrachloroethene],0.00034
12,ClC1=C(Cl)C2(Cl)C3C(Cl)C=CC3C1(Cl)C2(Cl)Cl (centres undefined) [heptachlor],0.0067
13,ClC(Cl)(Cl)Cl [tetrachloromethane],0.00033
14,ClCCl [dichloromethane],0.0031
15,ClC1=C(Cl)[C@]2(Cl)[C@H]3[C@H]([C@@H]4C=C[C@H]3C4)[C@@]1(Cl)C2(Cl)Cl [aldrin],0.02
16,ClC(Cl)Br [bromodichloromethane],0.0047
17,c1ccccc1 [benzene],0.0018
18,ClC(Cl)(Cl)C(Cl)(Cl)Cl [hexachloroethane],0.001
19,"ClC=CCCl [1,3-dichloropropene]",0.0028
20,"Clc1cccc(Cl)c1 [1,3-dichlorobenzene]",0.0038
21,ClC1=C(Cl)[C@]2(Cl)C3C(Cl)C(Cl)CC3[C@@]1(Cl)C2(Cl)Cl (some centres undefined) [chlordane],0.21
22,BrC(Br)Br [tribromomethane],0.019
23,ClC1=C(Cl)C(Cl)(Cl)C(Cl)=C1Cl [hexachlorocyclopentadiene],0.0006
24,CCc1ccccc1 [ethylbenzene],0.0015
25,ClC(Cl)=C(Cl)C(Cl)=C(Cl)Cl [hexachlorobutadiene],0.00096
26,"CC(Cl)CCl (centres undefined) [1,2-dichloropropane]",0.0035
27,O=[N+]([O-])c1ccccc1 [nitrobenzene],0.41
28,ClC1=C(Cl)C2(Cl)C3C4OC4C(Cl)C3C1(Cl)C2(Cl)Cl (centres undefined) [heptachlorepoxide],0.31
29,ClC=C(Cl)Cl [trichloroethene],0.00084
